Results on three molecules are retold here after article PMC3101196, “Trapping Conformational States Along Ligand-Binding Dynamics of Peptide Deformylase: The Impact of Induced Fit on Enzyme Catalysis” (PLoS Biology, 2011).

What is called Kd is the free concentration of one partner at which half of the binding sites on the other are occupied at equilibrium, for simple one-to-one binding. What is called Km is the concentration of substrate that gives half-maximal velocity. One may read the kcat as the maximal rate divided by the concentration of active sites. Broadly, the kcat/Km is the second-order rate constant that governs catalysis at low substrate concentration.

“And” between values parts separate entries of the source, which are not always exact repeats. Equal entries are not always repeated.

Data set [1] addresses T1, AtPDF (Arabidopsis thaliana, UniProt Q9FUZ2). The data set can be described thus: PDF activity assay coupled to formate dehydrogenase (NADH absorbance at 340 nm). As to the method: (§1) Assay of PDF activity was coupled to formate dehydrogenase, where the absorbance of NADH at 340 nm was measured at 37°C as previously described. […] The kinetics parameters were derived from iterative non-linear least square calculations using the Michaelis-Menten equation based on the experimental data (Sigma-Plot; Kinetics module). […] The data were then calculated according to the method of Henderson, which can be used to determine the dissociation constant of the tight-binding competitive enzyme inhibitor [28],[49],[72] by varying both the inhibitor and substrate concentrations. To determine K I, k 5, and k 6, the reaction was initiated by the addition of enzyme as previously described,[49]. […] From the set of values obtained at various concentrations of I, k5 and k6 could be derived using kobs = k6 + k5[I]/(KI + [I]).
(§2) The enzyme concentration used in the assay was 100 nM.

For data set [2], the target named is EcPDF (Escherichia coli, UniProt P0A6K3). The procedure:
as §1

Data set [3] concerns the target AtPDF variant G41Q (Arabidopsis thaliana, UniProt Q9FUZ2, G121Q). The data set is described as follows: PDF activity assay coupled to formate dehydrogenase. The procedure: as §1
In data set [4] the target is T2, AtPDF variant G41M (Arabidopsis thaliana, UniProt Q9FUZ2, G121M).
T2 construct: Expression and purification of mature Arabidopsis thaliana PDF1B and all variants (i.e., AtPDF); made in house
T2 sequence (Q9FUZ2 57-273 G121M): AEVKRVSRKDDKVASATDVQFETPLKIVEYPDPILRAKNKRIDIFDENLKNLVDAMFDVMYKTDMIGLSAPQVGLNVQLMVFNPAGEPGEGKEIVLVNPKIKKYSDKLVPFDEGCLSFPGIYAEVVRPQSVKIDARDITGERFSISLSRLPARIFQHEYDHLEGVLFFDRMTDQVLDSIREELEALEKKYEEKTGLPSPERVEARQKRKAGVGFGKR
In kind it is biochemical. Particulars: nm = not measurable. As to the method:
as §1

Data set [5] deals with T3, AtPDF variant I42A (Arabidopsis thaliana, UniProt Q9FUZ2, I122A).
T3 construct: Expression and purification of mature Arabidopsis thaliana PDF1B and all variants (i.e., AtPDF); made in house
T3 sequence (Q9FUZ2 57-273 I122A): as the sequence (Q9FUZ2 57-273 G121M) above, with M65G, I66A counted along it
The data set is described as follows: biochemical. The procedure: as §1

Data set [6] concerns the target T4, AtPDF variant I130A (Arabidopsis thaliana, UniProt Q9FUZ2, I210A).
T4 construct: Expression and purification of mature Arabidopsis thaliana PDF1B and all variants (i.e., AtPDF); made in house
The data set is described as follows: biochemical. Particulars: for Ki: 100 nM enzyme. As to the method: as §1, §2

Data set [7] deals with T5, AtPDF variant I42F (Arabidopsis thaliana, UniProt Q9FUZ2, I122F).
T5 construct: Expression and purification of mature Arabidopsis thaliana PDF1B and all variants (i.e., AtPDF); made in house
T5 sequence (Q9FUZ2 57-273 I122F): as the sequence (Q9FUZ2 57-273 G121M) above, with M65G, I66F counted along it
The data set can be described thus: biochemical. Particulars: for Ki: 100 nM enzyme. As to the method: as §1, §2

Data set [8] has as its target T6, AtPDF variant I42N (Arabidopsis thaliana, UniProt Q9FUZ2, I122N).
T6 construct: Expression and purification of mature Arabidopsis thaliana PDF1B and all variants (i.e., AtPDF); made in house
The data set can be described thus: biochemical. The conditions noted are these: for Ki: 100 nM enzyme. As to the method:
as §1, §2

In data set [9] the target is T7, AtPDF variant I42W (Arabidopsis thaliana, UniProt Q9FUZ2, I122W).
T7 construct: Expression and purification of mature Arabidopsis thaliana PDF1B and all variants (i.e., AtPDF); made in house
The data set can be described thus: biochemical. Particulars: for Ki: 100 nM enzyme. The procedure: as §1, §2
Target sequence in this assay (Q9FUZ2 83-273 I122W): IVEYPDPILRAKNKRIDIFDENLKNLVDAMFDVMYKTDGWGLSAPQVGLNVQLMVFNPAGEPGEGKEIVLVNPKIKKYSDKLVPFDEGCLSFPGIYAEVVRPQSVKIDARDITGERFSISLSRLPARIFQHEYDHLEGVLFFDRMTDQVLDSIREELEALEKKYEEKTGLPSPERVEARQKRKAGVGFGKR

Data set [10] deals with T2, AtPDF variant G41M. The data set can be described thus: Isothermal titration calorimetry (ITC). Format: binding. The procedure: (§3) ITC experiments were performed using a VP-ITC isothermal titration calorimeter (Microcal Corp.). Experiments were performed at 37°C. […] A theoretical titration curve was fitted to the experimental data using the ORIGIN software (Microcal). This software uses the relationship between the heat generated after each injection and ΔH° (enthalpy change in kcal/mol), K A (the association binding constant in M^−1), n (number of binding sites per monomer), total protein concentration, and free and total ligand concentrations. The thermal stability of the WT and variants of Ni-AtPDF1B was studied by DSC using VP-DSC calorimetry (Microcal Corp.). DSC measurements were made with 10 µM protein solutions in buffer C. […] The same buffer was used as a reference. All solutions were degassed just before loading into the calorimeter. Scanning was performed at 1°C/min. The temperature dependence of the partial molar capacity (Cp) was expressed in kcal/K after subtracting the buffer signal using Origin(R) software.
(§4) The volume of each reaction was 10 µl, and injections were made at 240 s intervals. Top, raw data from the titration. Each peak corresponds to the injection. Bottom, the peaks in the upper panel were integrated with ORIGIN software and the values were plotted versus injection number. Each point corresponds to the heat in µcal generated by the reaction upon each injection. The solid line is the curve fit to the data by the Origin program. This fit yields values for K d. Experiments were done with wild type protein and others variants, and gave similar raw data and curve fit. (A) WT; (B) variant G41M; (C) variant I42W. (EPS) Click here for additional data file.

For data set [11], the target named is T5, AtPDF variant I42F. The data set is described as follows: Isothermal titration calorimetry (ITC). In kind it is binding. The procedure:
as §3, §4
A general note: Isothermal titration calorimetry measures the heat released or taken up as one component is titrated into another.

In data set [12] the target is T7, AtPDF variant I42W. The data set is described as follows: Isothermal titration calorimetry (ITC). Format: binding. As to the method:
as §3, §4
Target sequence in this assay (Q9FUZ2 57-273 I122W): as the sequence (Q9FUZ2 57-273 G121M) above, with M65G, I66W counted along it

In data set [13] the target is T2, AtPDF variant G41M. The data set can be described thus: Differential scanning calorimetry (DSC), thermal stability. Format: binding. The procedure:
as §3
(In general: Differential scanning calorimetry records heat flow against a reference as temperature is scanned.)

For data set [14], the system named is T8, AtPDF variant G41Q.
T8 construct: Expression and purification of mature Arabidopsis thaliana PDF1B and all variants (i.e., AtPDF); made in house
The data set is described as above. In kind it is binding, Arabidopsis thaliana. The procedure:
as §3

The test system of data set [15] is almost all of the AtPDF variants. The data set is described as above. In kind it is binding, Arabidopsis thaliana. The procedure: as §3
In data set [16] the test system is AtPDF wild-type (WT) and G41M and G41Q. The data set is described as follows: ΔΔGbinding calculated from Kd values. Also noted: species or system Arabidopsis thaliana. The conditions noted are these: calculated from the K d values for actinonin binding to WT and G41M and G41Q. As to the method: The percentage of the distance required to make a hydrogen bond (2.8 Å) is reported (dark squares). […] The values were calculated as follows. For the WT, it corresponds to the RT ln(KI*/KI) value, where R is the ideal gas constant and T is the temperature in Kelvin. RT is 0.616 kcal.mol^−1 at 37°C. For the G41M and G41Q variants, the ΔΔGbinding corresponds to RT ln(KI-G41variant/KD-WT). The obtained values are similar to that obtained if the kcat/Km substitutes the KD value in the calculation (ΔΔGbinding = RT ln(kcat/Km –G41variant/kcat/Km –WT). (EPS) Click here for additional data file.

Data set [17] has as its target T1, AtPDF. The data set is described as follows: Isothermal titration calorimetry (ITC). Format: binding. Also on record: Expression and purification of mature Arabidopsis thaliana PDF1B and all variants (i.e., AtPDF); made in house. The conditions noted are these: WT; from ITC (value in parentheses); 37°C. As to the method: as §3
The volume of each reaction was 10 µl, and injections were made at 240 s intervals. Top, raw data from the titration. Each peak corresponds to the injection. Bottom, the peaks in the upper panel were integrated with ORIGIN software and the values were plotted versus injection number. Each point corresponds to the heat in µcal generated by the reaction upon each injection. […]

Data set [18] deals with T1, AtPDF. The data set can be described thus: Differential scanning calorimetry (DSC), thermal stability. Format: binding. Also on record: Expression and purification of mature Arabidopsis thaliana PDF1B and all variants (i.e., AtPDF); made in house. The conditions noted are these: 10 µM protein, 20 µM actinonin; free enzyme 61°C. The procedure:
as §3

Data set [19] deals with CSCC[C@H](NC=O)C(=O)N[C@@H](C)C(=O)N[C@@H](CO)C(=O)O. The data set is described as follows: purified protein, by the assay type. Particulars: other: G41Q, substrate Fo-Met-Ala-Ser, 100 nM enzyme, 750 µM NiCl2, 37°C.
Substrate in data set [20]: CSCC[C@H](NC=O)C(=O)N[C@@H](C)C(=O)N[C@@H](CO)C(=O)O
The data set can be described thus: purified protein, by the assay type. Particulars: other: WT, substrate Fo-Met-Ala-Ser, 100 nM enzyme, 750 µM NiCl2, 37°C.

[21] abbreviates: value is k5 multiplied by 10^3, no preincubation.
The mark [22] stands for this setting: value is k6 multiplied by 10^4, no preincubation.
[23] abbreviates: KI*app, 2 mM substrate, actinonin preincubated 10 min at 37°C.
[24] abbreviates: KI, no preincubation, started by adding enzyme.

Sequence of EcPDF (P0A6K3 whole entry): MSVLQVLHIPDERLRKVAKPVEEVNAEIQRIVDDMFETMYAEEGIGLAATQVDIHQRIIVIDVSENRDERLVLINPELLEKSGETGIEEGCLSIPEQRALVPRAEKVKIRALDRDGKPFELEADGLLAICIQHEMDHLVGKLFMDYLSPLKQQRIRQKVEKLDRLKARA
T4 sequence (Q9FUZ2 57-273 I210A): as the sequence (Q9FUZ2 57-273 G121M) above, with M65G, I154A counted along it
T6 sequence (Q9FUZ2 57-273 I122N): as the sequence (Q9FUZ2 57-273 G121M) above, with M65G, I66N counted along it
Sequence of AtPDF variant G41Q (Arabidopsis thaliana, UniProt Q9FUZ2, G121Q) (Q9FUZ2 83-273 G121Q): as the sequence (Q9FUZ2 83-273 I122W) above, with G39Q, W40I counted along it

In the case of `CCCCC[C@H](CC(=O)NO)C(=O)N[C@H](C(=O)N1CCC[C@H]1CO)C(C)C` [actinonin], the dissociation constant Kd in data set [1] was 0.9 nM; in data set [3], 48 nM; in [5], 3 nM; in [7], 2.8 nM; in data set [8], 6.3 nM; in data set [10], 32 nM. The Kd in data set [11] turned out to be 3.6 nM; in [12], 3.7 nM; in [17] it was 4.5 nM. Moreover, the Ki in [1] (K I*, enzyme 100 nM, actinonin preincubated with enzyme 10 min at 37°C, assay initiated by substrate) was 0.9 ± 0.5 nM; in data set [1] (KI*app, Wild-type, 100 nM enzyme, 2 mM substrate, actinonin preincubated 10 min at 37°C), 2.3 ± 0.3 nM; in [6] (setting [23]), 1.5 ± 0.4 nM; in [6] (setting [24]), 36 ± 5 nM; in [7] (KI*app, I42F, 2 mM substrate, actinonin preincubated 10 min at 37°C) it was 2.8 ± 0.2 nM; in [7] (KI, I42F, no preincubation, started by adding enzyme) it was 43 ± 5 nM. For the same molecule, the Ki was determined as 6.3 ± 0.4 nM in data set [8] (KI*app, I42N, 2 mM substrate, actinonin preincubated 10 min at 37°C); 39 ± 4 nM in [8] (KI, I42N, no preincubation, started by adding enzyme); 2.8 ± 0.4 nM in data set [9] (setting [23]); 97 ± 6 nM in data set [9] (setting [24]). In data set [1] (WT, RT ln(KI*/KI), 37°C), the “binding free energy difference between the two complexes” value came to 3.1 kcal/mol. Besides, the “k6 (s^-1) x 10^4” value in data set [1] (Wild-type, Table S3 (with KI*app), value is k6 multiplied by 10^4) amounted to 10 ± 1 s^-1 x 10^4; in data set [6] (value is k6 multiplied by 10^4), 21 ± 2 s^-1 x 10^4; in data set [7] (I42F, value is k6 multiplied by 10^4), 62 ± 6 s^-1 x 10^4; in data set [8] (I42N, value is k6 multiplied by 10^4), 101 ± 10 s^-1 x 10^4; in data set [9] (value is k6 multiplied by 10^4) it was 16 ± 2 s^-1 x 10^4. Further, the “k4, dissociation of the primary enzyme-actinonin complex” value in [1] (assumes k3 = 10^9 M−1.s^−1 (diffusion-limited)) was 140 s⁻¹ and 140 ± 10 s⁻¹; in data set [2] (assumes k3 = 10^9 M−1.s^−1), 112 ± 10 s⁻¹. The “k 5 (s^−1) ×10^3” value in data set [1] (setting [21]) is 63±9 s^−1 ×10^3 and 63 ± 6 s^−1 ×10^3; in data set [2] (setting [21]), 170±20 s^−1 ×10^3. The “k 6 (s^−1) ×10^4” value in [1] (setting [22]) is 4±1 s^−1 ×10^4; in [2] (setting [22]), 19±2 s^−1 ×10^4. Further, the “KI*app” value in data set [3] (G41Q, nm = not measurable) is “nM”; in [4] it was “nM”. Besides, the “k5 (s^-1) x 10^3” value in data set [6] (value is k5 multiplied by 10^3) is 49 ± 5 s^-1 x 10^3; in data set [7] (I42F, value is k5 multiplied by 10^3) it was 89 ± 9 s^-1 x 10^3; in data set [8] (I42N, value is k5 multiplied by 10^3), 52 ± 5 s^-1 x 10^3; in [9] (value is k5 multiplied by 10^3) it was 52 ± 5 s^-1 x 10^3. The “increase in the T m by actinonin” value in [13] and in data set [14] was 12 °C throughout. Also, the “increase of T m by actinonin” value in data set [15] is “more than 20 °C”. The ΔΔGbinding in data set [16] is 2.2 to 2.4 kcal/mol. In [18], the “T m of AtPDF upon binding of the inhibitor” value amounted to 81 °C.
Take “AtPDF variant G41Q (Arabidopsis thaliana; G121Q)”: in data set [19], the Michaelis-Menten constant (Km) came to 6.7 ± 1.7 mM, the turnover number (kcat) was determined as 0.14 ± 0.02 s⁻¹ and the kcat/Km was 20 ± 10 M⁻¹ s⁻¹.

B1: AtPDF (Arabidopsis thaliana) (protein)
chain: AEVKRVSRKDDKVASATDVQFETPLKIVEYPDPILRAKNKRIDIFDENLKNLVDAMFDVMYKTDGIGLSAPQVGLNVQLMVFNPAGEPGEGKEIVLVNPKIKKYSDKLVPFDEGCLSFPGIYAEVVRPQSVKIDARDITGERFSISLSRLPARIFQHEYDHLEGVLFFDRMTDQVLDSIREELEALEKKYEEKTGLPSPERVEARQKRKAGVGFGKR
Regarding B1, in data set [20], the Km is given as 6.5 ± 0.7 mM, the kcat amounted to 37 ± 2 s⁻¹ and the kcat/Km came to 5700 ± 600 M⁻¹ s⁻¹.
